Experimental data from US10654853B2, “Spiro-condensed pyrrolidine derivatives as deubiquitylating enzymes (DUB) inhibitors” (MISSION THERAPEUTICS LIMITED, priority 2016, dated 2020).

Molecular target: Cezanne 1 (Homo sapiens (Human), UniProt Q6GQQ9)
Assay: Cezanne 1 biochemical IC50 assay (fluorescence polarisation, TAMRA labelled peptide linked to ubiquitin)
Details: Cezanne 1 biochemical IC50 assay; 30 min pre-incubation, read after 2 hr at room temperature; read-out: IC50 range
In short: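 FLAG-tagged Cezanne 1, expressed in HEK293T and FLAG-purified, was preincubated with compound for 30 min at room temperature in Tris pH 7.5 buffer with Tween 20, BSA and β-mercaptoethanol. Reactions were started with 50 nM TAMRA-peptide isopeptide-linked to ubiquitin. Fluorescence polarisation (ex 540/em 590 nm) was read immediately and after 2 h.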

Cezanne 1, sequence (Q6GQQ9 whole entry): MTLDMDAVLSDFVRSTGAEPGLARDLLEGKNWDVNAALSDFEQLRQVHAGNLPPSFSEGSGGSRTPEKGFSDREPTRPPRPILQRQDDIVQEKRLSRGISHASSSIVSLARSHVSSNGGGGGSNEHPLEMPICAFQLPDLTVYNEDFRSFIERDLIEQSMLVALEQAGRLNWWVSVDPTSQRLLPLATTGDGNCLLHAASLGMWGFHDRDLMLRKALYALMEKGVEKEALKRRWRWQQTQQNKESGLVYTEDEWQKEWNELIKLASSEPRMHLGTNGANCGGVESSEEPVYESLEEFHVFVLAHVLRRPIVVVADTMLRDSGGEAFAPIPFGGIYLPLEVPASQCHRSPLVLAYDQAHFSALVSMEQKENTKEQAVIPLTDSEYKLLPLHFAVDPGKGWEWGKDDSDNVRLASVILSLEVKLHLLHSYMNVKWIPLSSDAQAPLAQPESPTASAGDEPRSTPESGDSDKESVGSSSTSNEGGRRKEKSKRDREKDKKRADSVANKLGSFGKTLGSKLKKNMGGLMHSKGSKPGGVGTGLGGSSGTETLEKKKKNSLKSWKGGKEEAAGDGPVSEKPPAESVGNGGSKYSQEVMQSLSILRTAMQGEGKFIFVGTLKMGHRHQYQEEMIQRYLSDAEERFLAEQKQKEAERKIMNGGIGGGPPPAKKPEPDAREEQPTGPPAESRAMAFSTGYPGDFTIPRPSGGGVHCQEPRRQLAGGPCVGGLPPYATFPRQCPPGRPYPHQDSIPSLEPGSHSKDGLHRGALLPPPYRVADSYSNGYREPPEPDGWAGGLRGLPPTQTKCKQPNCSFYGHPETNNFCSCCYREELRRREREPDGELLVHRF

Cn1ncc2cc(-c3ccc4c(c3)CC3(CCN(C#N)C3)C(=O)N4)ccc21 (centres unmarked) [Example 107, 6′-(1-Methyl-1H-indazol-5-yl)-2′-oxo-1′,4′-dihydro-2′H-spiro[pyrrolidine-3,3′-quinoline]-1-carbonitrile]
IC50: 100 to 1000 nM

Cc1ccc2[nH]ncc2c1-c1ccc2c(c1)CC1(CCN(C#N)C1)C(=O)N2 (centres unmarked) [Example 108, 6′-(5-Methyl-1H-indazol-4-yl)-2′-oxo-1′,4′-dihydro-2′H-spiro[pyrrolidine-3,3′-quinoline]-1-carbonitrile]
IC50: 100 to 1000 nM

N#CN1CCC2(Cc3cc(-c4cccc(NS(=O)(=O)C5CC5)c4)ccc3NC2=O)C1 (centres unmarked) [Example 109, N-(3-(1-Cyano-2′-oxo-1′,4′-dihydro-2′H-spiro[pyrrolidine-3,3′-quinolin]-6′-yl)phenyl)cyclopropanesulfonamide]
IC50: 100 to 1000 nM

CN(C)C(=O)c1ccc(-c2ccc3c(c2)CC2(CCN(C#N)C2)C(=O)N3)cc1 (centres unmarked) [Example 110, 4-(1-Cyano-2′-oxo-1′,4′-dihydro-2′H-spiro[pyrrolidine-3,3′-quinolin]-6′-yl)-N,N-dimethylbenzamide]
IC50: 100 to 1000 nM

N#CN1CCC2(Cc3cc(-c4cncnc4)ccc3NC2=O)C1 (centres unmarked) [Example 111, 2′-Oxo-6′-(pyrimidin-5-yl)-1′,4′-dihydro-2′H-spiro[pyrrolidine-3,3′-quinoline]-1-carbonitrile]
IC50: 100 to 1000 nM

CC(=O)Nc1cccc(-c2ccc3c(c2)CC2(CCN(C#N)C2)C(=O)N3)c1 (centres unmarked) [Example 112, N-(3-(1-Cyano-2′-oxo-1′,4′-dihydro-2′H-spiro[pyrrolidine-3,3′-quinolin]-6′-yl)phenyl)acetamide]
IC50: 100 to 1000 nM

CC(=O)Nc1ccc(-c2ccc3c(c2)CC2(CCN(C#N)C2)C(=O)N3)cc1 (centres unmarked) [Example 113, N-(4-(1-Cyano-2′-oxo-1′,4′-dihydro-2′H-spiro[pyrrolidine-3,3′-quinolin]-6′-yl)phenyl)acetamide]
IC50: 100 to 1000 nM

N#CN1CCC2(Cc3cc(-c4ccc(S(=O)(=O)N5CCOCC5)cc4)ccc3NC2=O)C1 (centres unmarked) [Example 116, 6′-(4-(Morpholinosulfonyl)phenyl)-2′-oxo-1′,4′-dihydro-2′H-spiro[pyrrolidine-3,3′-quinoline]-1-carbonitrile]
IC50: 100 to 1000 nM

N#CN1CCC2(Cc3cc(-c4cccc(N5CCCCC5)c4)ccc3NC2=O)C1 (centres unmarked) [Example 118, 2′-Oxo-6′-(3-(piperidin-1-yl)phenyl)-1′,4′-dihydro-2′H-spiro[pyrrolidine-3,3′-quinoline]-1-carbonitrile]
IC50: 100 to 1000 nM

CC(=O)Nc1ccccc1-c1ccc2c(c1)CC1(CCN(C#N)C1)C(=O)N2 (centres unmarked) [Example 119, N-(2-(1-Cyano-2′-oxo-1′,4′-dihydro-2′H-spiro[pyrrolidine-3,3′-quinolin]-6′-yl)phenyl)acetamide]
IC50: 100 to 1000 nM

N#CN1CCC2(Cc3cc(-c4ccc(C(=O)N5CCOCC5)cc4)ccc3NC2=O)C1 (centres unmarked) [Example 120, 6′-(4-(Morpholine-4-carbonyl)phenyl)-2′-oxo-1′,4′-dihydro-2′H-spiro[pyrrolidine-3,3′-quinoline]-1-carbonitrile]
IC50: 100 to 1000 nM

N#CN1CCC2(Cc3cc(-c4cccc(S(=O)(=O)N5CCOCC5)c4)ccc3NC2=O)C1 (centres unmarked) [Example 121, 6′-(3-(Morpholinosulfonyl)phenyl)-2′-oxo-1′,4′-dihydro-2′H-spiro[pyrrolidine-3,3′-quinoline]-1-carbonitrile]
IC50: 100 to 1000 nM

Cn1cc(-c2ccc3c(c2)CC2(CCN(C#N)C2)C(=O)N3)ccc1=O (centres unmarked) [Example 122, 6′-(1-Methyl-6-oxo-1,6-dihydropyridin-3-yl)-2′-oxo-1′,4′-dihydro-2′H-spiro[pyrrolidine-3,3′-quinoline]-1-carbonitrile]
IC50: 1000 to 10000 nM

Cc1nc2cc(-c3ccc4c(c3)CC3(CCN(C#N)C3)C(=O)N4)ccc2s1 (centres unmarked) [Example 123, 6′-(2-Methylbenzo[d]thiazol-5-yl)-2′-oxo-1′,4′-dihydro-2′H-spiro[pyrrolidine-3,3′-quinoline]-1-carbonitrile]
IC50: 100 to 1000 nM

Cc1noc(C)c1-c1ccc2c(c1)CC1(CCN(C#N)C1)C(=O)N2 (centres unmarked) [Example 124, 6′-(3,5-Dimethylisoxazol-4-yl)-2′-oxo-1′,4′-dihydro-2′H-spiro[pyrrolidine-3,3′-quinoline]-1-carbonitrile]
IC50: 100 to 1000 nM

N#CN1CCC2(Cc3cc(-c4cc(OC(F)(F)F)ccc4Cl)ccc3NC2=O)C1 (centres unmarked) [Example 125, 6′-(2-Chloro-5-(trifluoromethoxy)phenyl)-2′-oxo-1′,4′-dihydro-2′H-spiro[pyrrolidine-3,3′-quinoline]-1-carbonitrile]
IC50: 100 to 1000 nM

CN1CCN(c2ccc(-c3ccc4c(c3)CC3(CCN(C#N)C3)C(=O)N4)cc2)CC1 (centres unmarked) [Example 126, 6′-(4-(4-Methylpiperazin-1-yl)phenyl)-2′-oxo-1′,4′-dihydro-2′H-spiro[pyrrolidine-3,3′-quinoline]-1-carbonitrile]
IC50: 100 to 1000 nM

N#CN1CCC2(Cc3cc(-c4ccc(C(=O)NCc5ccccc5)cc4)ccc3NC2=O)C1 (centres unmarked) [Example 127, N-Benzyl-4-(1-cyano-2′-oxo-1′,4′-dihydro-2′H-spiro[pyrrolidine-3,3′-quinolin]-6′-yl)benzamide]
IC50: 100 to 1000 nM

Cc1n[nH]cc1-c1ccc2c(c1)CC1(CCN(C#N)C1)C(=O)N2 (centres unmarked) [Example 128, 6′-(3-Methyl-1H-pyrazol-4-yl)-2′-oxo-1′,4′-dihydro-2′H-spiro[pyrrolidine-3,3′-quinoline]-1-carbonitrile]
IC50: 100 to 1000 nM

N#CN1CCC2(Cc3cc(-c4ccc(CN5CCOCC5)cc4)ccc3NC2=O)C1 (centres unmarked) [Example 129, 6′-(4-(Morpholinomethyl)phenyl)-2′-oxo-1′,4′-dihydro-2′H-spiro[pyrrolidine-3,3′-quinoline]-1-carbonitrile]
IC50: 100 to 1000 nM

CN(C)C(=O)c1cccc(-c2ccc3c(c2)CC2(CCN(C#N)C2)C(=O)N3)c1 (centres unmarked) [Example 130, 3-(1-Cyano-2′-oxo-1′,4′-dihydro-2′H-spiro[pyrrolidine-3,3′-quinolin]-6′-yl)-N,N-dimethylbenzamide]
IC50: 100 to 1000 nM

Cc1cc(-c2ccc3c(c2)CC2(CCN(C#N)C2)C(=O)N3)ccn1 (centres unmarked) [Example 131, 6′-(2-Methylpyridin-4-yl)-2′-oxo-1′,4′-dihydro-2′H-spiro[pyrrolidine-3,3′-quinoline]-1-carbonitrile]
IC50: 100 to 1000 nM

Cc1ccc2[nH]ncc2c1-c1ccc2c(c1)NC(=O)[C@@]1(CCN(C#N)C1)C2 [Example 132, (R)-7′-(5-Methyl-H-indazol-4-yl)-2′-oxo-1′,4′-dihydro-2′H-spiro[pyrrolidine-3,3′-quinoline]-1-carbonitrile]
IC50: 100 to 1000 nM

N#CN1CCC2(Cc3ccc(-c4cccc5[nH]ncc45)cc3NC2=O)C1 (centres unmarked) [Example 133, 7′-(1H-Indazol-4-yl)-2′-oxo-1′,4′-dihydro-2′H-spiro[pyrrolidine-3,3′-quinoline]-1-carbonitrile]
IC50: 100 to 1000 nM

N#CN1CCC2(Cc3cc(-c4cccc5[nH]ncc45)ccc3NC2=O)C1 (centres unmarked) [Example 134, 6′-(1H-Indazol-4-yl)-2′-oxo-1′,4′-dihydro-2′H-spiro[pyrrolidine-3,3′-quinoline]-1-carbonitrile]
IC50: 100 to 1000 nM

N#CN1CCC2(C1)Oc1ncc(-c3cccc4[nH]ncc34)cc1NC2=O (centres unmarked) [Example 135, 7-(1H-Indazol-4-yl)-2-oxo-1,2-dihydrospiro[pyrido[2,3-b][1,4]oxazine-3,3′-pyrrolidine]-1′-carbonitrile]
IC50: < 100 nM

Cn1ncc2c(-c3cnc4c(c3)NC(=O)C3(CCN(C#N)C3)O4)cccc21 (centres unmarked) [Example 136, 7-(1-Methyl-1H-indazol-4-yl)-2-oxo-1,2-dihydrospiro[pyrido[2,3-b][1,4]oxazine-3,3′-pyrrolidine]-1′-carbonitrile]
IC50: < 100 nM

N#CN1CCC2(C1)Oc1ncc(-c3cccc4c3cnn4CCO)cc1NC2=O (centres unmarked) [Example 137, 7-(1-(2-Hydroxyethyl)-1H-indazol-4-yl)-2-oxo-1,2-dihydrospiro[pyrido[2,3-b][1,4]oxazine-3,3′-pyrrolidine]-1′-carbonitrile]
IC50: < 100 nM

COc1ccc(-c2cnc3c(c2)NC(=O)C2(CCN(C#N)C2)O3)c(C)n1 (centres unmarked) [Example 138, 7-(6-Methoxy-2-methylpyridin-3-yl)-2-oxo-1,2-dihydrospiro[pyrido[2,3-b][1,4]oxazine-3,3′-pyrrolidine]-1′-carbonitrile]
IC50: 100 to 1000 nM

N#CN1CCC2(C1)Oc1nc(-c3cccc4[nH]ncc34)ccc1NC2=O (centres unmarked) [Example 139, 6-(1H-Indazol-4-yl)-2-oxo-1,2-dihydrospiro[pyrido[2,3-b][1,4]oxazine-3,3′-pyrrolidine]-1′-carbonitrile]
IC50: 100 to 1000 nM

COCCn1ncc2c(-c3cnc4c(c3)NC(=O)C3(CCN(C#N)C3)O4)cccc21 (centres unmarked) [Example 140, 7-(1-(2-Methoxyethyl)-1H-indazol-4-yl)-2-oxo-1,2-dihydrospiro[pyrido[2,3-b][1,4]oxazine-3,3′-pyrrolidine]-1′-carbonitrile]
IC50: 100 to 1000 nM

N#CN1CCC2(C1)Oc1nc(C(=O)Nc3ccc(F)cc3)ccc1NC2=O (centres unmarked) [Example 141, 1′-Cyano-N-(4-fluorophenyl)-2-oxo-1,2-dihydrospiro[pyrido[2,3-b][1,4]oxazine-3,3′-pyrrolidine]-6-carboxamide]
IC50: 1000 to 10000 nM

N#CN1CCC2(C1)Oc1nc(C(=O)N3CCCCC3)ccc1NC2=O (centres unmarked) [Example 142, 2-Oxo-6-(piperidine-1-carbonyl)-1,2-dihydrospiro[pyrido[2,3-b][1,4]oxazine-3,3′-pyrrolidine]-1′-carbonitrile]
IC50: 1000 to 10000 nM

N#CN1CCC2(C1)Oc1nc(C(=O)Nc3ccccc3)ccc1NC2=O (centres unmarked) [Example 143, 1′-Cyano-2-oxo-N-phenyl-1,2-dihydrospiro[pyrido[2,3-b][1,4]oxazine-3,3′-pyrrolidine]-6-carboxamide]
IC50: 100 to 1000 nM

N#CN1CCC2(C1)Oc1nc(C(=O)Nc3ccccc3F)ccc1NC2=O (centres unmarked) [Example 144, 1′-Cyano-N-(2-fluorophenyl)-2-oxo-1,2-dihydrospiro[pyrido[2,3-b][1,4]oxazine-3,3′-pyrrolidine]-6-carboxamide]
IC50: 100 to 1000 nM
